Results from patent US5892063A (Hauser, Inc., priority 1997, dated 1999).

Assays:
[1] = test system: HL-60(TB); experiment: SRB growth screen, leukemia HL-60(TB); settings: Homo sapiens, HL-60, 48 h
[2] = test system: HCC-2998; experiment: SRB growth screen, colon cancer HCC-2998; settings: Homo sapiens, HCC 2998, 48 h
[3] = test system: HCT-116; experiment: SRB growth screen, colon cancer HCT-116; settings: Homo sapiens, HCT-116, 48 h
[4] = test system: M14; experiment: SRB growth screen, melanoma M14; settings: Homo sapiens, M14, 48 h
[5] = test system: IGROV1; experiment: SRB growth screen, ovarian cancer IGROV1; settings: Homo sapiens, IGROV-1, 48 h
[6] = test system: NCI-H460; settings: Homo sapiens, NCI-H460, 48 h, read-out: Log10 LC50 (converted)
[7] = test system: SF-539; experiment: SRB growth screen, CNS cancer SF-539; settings: Homo sapiens, SF-539, 48 h, read-out: Log10 LC50 (converted)
[8] = test system: SR; experiment: SRB growth screen, leukemia SR; settings: Homo sapiens, 48 h
[9] = test system: DU-145; experiment: SRB growth screen, prostate cancer DU-145; settings: Homo sapiens, DU-145, 48 h
[10] = test system: HOP-62; settings: Homo sapiens, HOP-62, 48 h
[11] = test system: SK-MEL-2; experiment: SRB growth screen, melanoma SK-MEL-2; settings: Homo sapiens, SK-MEL-2, 48 h, read-out: Log10 LC50 (converted)
[12] = test system: MDA-MB-435; experiment: SRB growth screen, breast cancer MDA-MB-435; type: cell-based; settings: Homo sapiens, MDA-MB-435, 48 h, read-out: Log10 GI50 (converted)
[13] = test system: BT-549; experiment: SRB growth screen, breast cancer BT-549; settings: Homo sapiens, BT-549, 48 h
[14] = test system: MDA-N; experiment: SRB growth screen, breast cancer MDA-N; settings: Homo sapiens, 48 h, read-out: Log10 GI50 (converted)
[15] = test system: LOX-IMVI; experiment: SRB growth screen, melanoma LOX-IMVI; settings: Homo sapiens, 48 h
[16] = test system: UACC-62; experiment: SRB growth screen, melanoma UACC-62; settings: Homo sapiens, UACC-62, 48 h, read-out: Log10 LC50 (converted)
[17] = test system: HT29; experiment: SRB growth screen, colon cancer HT29; settings: Homo sapiens, HT-29, 48 h
[18] = test system: RXF-393; experiment: SRB growth screen, renal cancer RXF-393; settings: Homo sapiens, RXF 393, 48 h
[19] = test system: MALME-3M; experiment: SRB growth screen, melanoma MALME-3M; settings: Homo sapiens, 48 h
[20] = test system: MCF7/ADR-RES; experiment: SRB growth screen, breast cancer MCF7/ADR-RES; settings: Homo sapiens, 48 h
[21] = test system: COLO 205; experiment: SRB growth screen, colon cancer COLO 205; settings: Homo sapiens, COLO 205, 48 h, read-out: Log10 LC50 (converted)
[22] = test system: SN12C; experiment: SRB growth screen, renal cancer SN12C; settings: Homo sapiens, 48 h
[23] = test system: K-562; experiment: SRB growth screen, leukemia K-562; settings: Homo sapiens, K562, 48 h
[24] = test system: PC-3; experiment: SRB growth screen, prostate cancer PC-3; settings: Homo sapiens, PC-3, 48 h
[25] = test system: MCF7; experiment: SRB growth screen, breast cancer MCF7; settings: Homo sapiens, MCF7, 48 h, read-out: Log10 LC50 (converted)
[26] = test system: U251; experiment: SRB growth screen, CNS cancer U251; settings: Homo sapiens, U-251, 48 h
[27] = read-out: Log10 LC50 (converted)
[28] = read-out: Log10 GI50 (converted)

In the case of `CC(=O)O[C@H]1C(=O)[C@@]2(C)[C@H]([C@H](OC(=O)c3ccccc3)[C@]3(O)C[C@H](OC(=O)[C@H](O)[C@@H](NC(=O)c4ccccc4)c4ccccc4)C(C)=C1C3(C)C)[C@]1(OC(C)=O)CO[C@@H]1C[C@@H]2O` [Paclitaxel, paclitaxel, reference compound], the CC50 [1, 27] is reported as greater than 100 µM, the IC (TGI) ([1]; read-out: Log10 TGI) is reported as greater than 29.5 µM and the CC50 [2, 27] is reported as 55 µM. For the same molecule, the IC (TGI) ([2]; read-out: Log10 TGI) was 17 µM, the GI50 [3, 28] was less than 0.1 pM and the CC50 [3, 27] was greater than 100 µM. For the same molecule, the IC (TGI) ([3]; read-out: Log10 TGI) was 15.1 µM, the CC50 [4, 27] was 74.1 µM and the IC (TGI) ([4]; read-out: Log10 TGI) was 24 µM. It also gave a CC50 [5, 27] greater than 100 µM, an IC (TGI) ([5]; read-out: Log10 TGI) of 64.6 µM and a CC50 [6] greater than 100 µM. For the same molecule, the CC50 [7] was greater than 100 µM, the CC50 [8, 27] was greater than 100 µM and the IC (TGI) ([8]; read-out: Log10 TGI) was greater than 100 µM. It also gave a CC50 [9, 27] greater than 100 µM, an IC (TGI) ([9]; read-out: Log10 TGI) greater than 100 µM and a CC50 [10, 27] of 79.4 µM. The IC (TGI) ([10]; read-out: Log10 TGI) was 15.8 µM, the CC50 [11] was greater than 100 µM and the GI50 [12] was less than 0.1 pM. The GI50 [13, 28] was 0.00049 µM, the CC50 [13, 27] was greater than 100 µM and the IC (TGI) ([13]; read-out: Log10 TGI) was 0.479 µM. It also gave a GI50 [14] of less than 0.1 pM, a CC50 [15, 27] greater than 70.8 µM and an IC (TGI) ([15]; read-out: Log10 TGI) of 22.4 µM. The CC50 [16] was 64.6 µM, the GI50 [17, 28] was less than 0.1 pM and the CC50 [17, 27] was 40.7 µM. For the same molecule, the CC50 [18, 27] was 35.5 µM, the IC (TGI) ([18]; read-out: Log10 TGI) was 12.6 µM and the CC50 [19, 27] was 77.6 µM. For the same molecule, the IC (TGI) ([19]; read-out: Log10 TGI) was 34.7 µM, the CC50 [20, 27] was greater than 100 µM and the IC (TGI) ([20]; read-out: Log10 TGI) was greater than 100 µM. The CC50 [21] was greater than 38.9 µM, the CC50 [22, 27] was greater than 100 µM and the IC (TGI) ([22]; read-out: Log10 TGI) was 91.2 µM. It also gave a CC50 [23, 27] greater than 100 µM, an IC (TGI) ([23]; read-out: Log10 TGI) greater than 100 µM and a CC50 [24, 27] greater than 100 µM. For the same molecule, the IC (TGI) ([24]; read-out: Log10 TGI) was greater than 100 µM, the CC50 [25] was greater than 100 µM and the CC50 [26, 27] was 70.8 µM. For the same molecule, the IC (TGI) ([26]; read-out: Log10 TGI) was 47.9 µM.
